# Data taken from patent EP1858912B1, “COMPOUNDS FOR REDUCING AGGREGATION OF AMYLOID BETA-PEPTIDE” (Alphabeta AB, priority 2005, dated 2012).
# Where a SMILES comes first, the peptide text is derived from it. Bridges are numbered along the chain shown (N, C = ends). Roman numbers before positions name the chains, in order. [ ]: non-standard residue; d: D form. Dab = NCC[C@H](N)C(=O)O
# Tests used:
# [1] = tested on: Drosophila melanogaster express Aβ1-42 in neurons; assay: Longevity in Drosophila model of Alzheimer's disease; format: in vivo
# From the text: A model of Alzheimer's disease was used in which Drosophila melanogaster express Aβ1-42 in neurons (Crowther et al., 2005, Neuroscience 132:123-135).
# Aβ(12-28) [2] = assay: Circular dichroism spectroscopy of Aβ secondary structure; format: biochemical; conditions: 1:1 molar ratio, sodium phosphate buffer pH 7, 30% (v/v) trifluoroethanol, 20°C; compared with Aβ(12-28) alone; ligand spectrum subtracted
# Experimental: Compounds described herein can be tested for their ability to affect the secondary structure of an Aβ peptide. As an example, addition of ligands to Aβ(1-40) or Aβ(12-28) in solution increased the helical content of Aβ peptides, as measured by circular dichroism (CD) spectroscopy. This is evidenced by a decrease in molar ellipticity at 208 and 222 nm, and an increase in molar ellipticity at 190-195 nm (an example is shown in Fig. 6). In these experiments, Aβ peptides (concentration about 20 µM to 100 µM) were mixed with ligands in ligand/Aβ molar ratios ranging between 1 and 10. The measurements were performed in phosphate buffer (as described below for thioflavin T measurements) or in phosphate buffer containing 30% trifluoroethanol. The samples were incubated at 37°C with or without shaking before measurements. CD measurements were performed at room temperature in a Jasco 810 instrument using a 1 mm cuvette (sample volume 200-300 µl). For each sample, three spectra were accumulated. Spectra were measured between 260 and 185 nm, and the spectra of buffer and ligands alone were subtracted from the spectra of the mixtures. Molar ellipticity values were calculated using the recorded spectra and the peptide concentrations, and expressed in kdeg x cm^2/dmol. […]
# Aβ(1-40) [3] = assay: Thioflavin T fluorescence assay of Aβ fibril formation; format: biochemical
# Experimental: Fibril formation of Aβ(1-40) or Aβ(12-28) with and without the presence of the ligands was assessed by the fibril-binding dye thioflavin T (ThT). Solutions containing Aβ peptides in concentrations from about 20 µM to 200 µM without ligand present, or at different peptide/ligand ratios were prepared in 10 mM sodium phosphate buffer, pH 7. The samples were incubated at 37°C under constant gentle shaking. At different time points aliquots were removed and ThT measurements performed using 10 µM ThT in 10 mM sodium phosphate buffer, pH 6, containing 150mMNaCl.
# The samples were incubated for 10-15 minutes in the dark before ThT fluorescence measurements were made. Fluorescence was measured using a FarCyte™ (Tecan) instrument with excitation at 440 nm and emission at 480 nm. All samples were measured in duplicates.
# [4] = tested on: wild type Drosophila (WIII8) that do not express Aβ(1-42); assay: Longevity in control flies not expressing Aβ; format: in vivo; conditions: 650 µM in the food; control flies not expressing Aβ (Fig. 13)
# Aβ(12-28) [5] = assay: Tryptophan fluorescence emission of ligand (binding to Aβ); conditions: after addition of Aβ(12-28); excitation 280 nm
# Experimental: (§1) In these experiments, shifts in fluorescence emission were used to indicate binding. In these experiments, ligand 3 (about 10 µM) was dissolved in sodium phosphate buffer, pH 7, with or without trifluoroethanol present. Fluorescence was measured in a Hitachi F-4000 spectrophotometer, and emission was measured between 300 and 430 nm after excitation at 280 nm.
# (§2) When Aβ(1-40) or Aβ(12-28) was added to a solution containing ligand 3, the fluorescence yield was increased (e.g., Fig 7) and the wavelength at maximum emission was shifted from about 348 nm to 344 nm.
# Aβ(1-40) [6] = assay: as above; conditions: excitation 280 nm; for emission maximum: sodium phosphate buffer pH 7, 30% (v/v) trifluoroethanol, 20°C
# Experimental: as §1, §2
compound,measurement,setting,value
"CC(=O)N[C@H](CCC(=O)O)C(=O)N[C@@H](CCNC(=O)[C@@H](Cc1c[nH]c2ccccc12)NC(=O)[C@@H](N)CCCNC(=N)N)C(=O)O [ligand 3, Ac-D-Glu-Dab(Arg-D-Trp)] (I: H-Arg-[dW] / II: Ac-[dE]-[Dab]-OH; amide I:C-II:2)",mean survival time,"[1]; 134 µM in the food, 29°C and high humidity (Fig. 12)",increased the mean survival time
same,mean survival time,"[1]; 650 µM in the food, 28°C and low humidity, p=0.0035 (Fig. 11)",prolonged mean survival time
same,longevity,"[1]; fed from the larval stage, compared to untreated flies, two different experimental conditions",significant increase in longevity
same,circular dichroism spectra,Aβ(12-28) [2],lowest value at 222 nm and highest value at 195 nm
same,"Aβ(1-40) fibril formation, as measured by ThT binding","Aβ(1-40) [3]; 1:1 ligand/peptide molar ratio, 1.5 hours at 37°C (Fig. 9)",effective in reducing Aβ(1-40) fibril formation
same,ThT fluorescence induced by Aβ(1-40),"Aβ(1-40) [3]; different periods of incubation at 37°C, 10 mM sodium phosphate pH 7, 5:1 or 10:1 ligand/Aβ molar ratio (Fig. 8)",practically abolished
same,ThT fluorescence,"Aβ(1-40) [3]; ligand/Aβ ratio 5, compared with 1:1, 1.5 hours at 37°C (Fig. 9)",further reduction of ThT fluorescence
same,ThT fluorescence,"Aβ(1-40) [3]; ligand/Aβ ratio 10, 1.5 hours at 37°C (Fig. 9)",approximately the same result as a ligand/Aβ ratio of 5
same,effects on mean survival (longevity),[4],absence of a statistically significant difference
same,fluorescence yield,Aβ(12-28) [5],increased
same,wavelength at maximum emission,Aβ(12-28) [5],344 nm
same,fluorescence yield,Aβ(1-40) [6]; after addition of Aβ(1-40),increased
same,wavelength at maximum emission,Aβ(1-40) [6]; after addition of Aβ(1-40),344 nm
same,emission maximum,"Aβ(1-40) [6]; complex with Aβ(1-40), 1:1 molar ratio",344 nm
same,wavelength at maximum emission,Aβ(1-40) [6]; ligand about 10 µM before addition of Aβ,about 348 nm
same,emission maximum,Aβ(1-40) [6]; ligand only,348 nm
